Our source for the IC50 values is paper PMC4747190, “Flavokawain A induces deNEDDylation and Skp2 degradation leading to inhibition of tumorigenesis and cancer progression in the TRAMP transgenic mouse model” (Oncotarget, 2015).

For this assay, the target named is T1, NEDD8-activating enzyme (NAE), Uba3 subunit (Homo sapiens, UniProt Q8TBC4).
T1 construct: His-APP-BP1, His-Uba3 (kit enzymes); with APPBP1 (NAE1); Ubc12 and NEDD8 present in the assay
The experiment in a line: in vitro NEDD8 conjugation assay with purified E1 (APPBP1/Uba3), Ubc12 and NEDD8; non-reducing western blot of Ubc12-NEDD8. Type of assay: biochemical. Background: In western blotting, separated proteins are transferred to a membrane and probed.

In general, IC50 refers to the midpoint of a concentration-inhibition curve. The low end stands for greater potency in that assay, the high end for weaker potency in that assay.

T1 sequence (Q8TBC4 2-463): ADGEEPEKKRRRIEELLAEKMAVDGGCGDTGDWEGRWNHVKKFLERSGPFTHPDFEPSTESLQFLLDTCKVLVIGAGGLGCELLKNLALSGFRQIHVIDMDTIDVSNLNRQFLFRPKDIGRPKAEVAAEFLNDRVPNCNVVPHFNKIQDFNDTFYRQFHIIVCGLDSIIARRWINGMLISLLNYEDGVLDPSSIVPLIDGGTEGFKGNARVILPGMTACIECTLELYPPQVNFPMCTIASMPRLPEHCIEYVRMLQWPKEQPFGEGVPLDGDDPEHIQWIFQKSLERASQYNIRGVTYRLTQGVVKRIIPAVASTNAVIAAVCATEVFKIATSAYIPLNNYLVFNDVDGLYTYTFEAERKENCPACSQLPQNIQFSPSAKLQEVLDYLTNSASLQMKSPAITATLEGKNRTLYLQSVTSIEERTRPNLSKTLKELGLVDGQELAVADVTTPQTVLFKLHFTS
T1 sequence (Q13564 2-534 partner): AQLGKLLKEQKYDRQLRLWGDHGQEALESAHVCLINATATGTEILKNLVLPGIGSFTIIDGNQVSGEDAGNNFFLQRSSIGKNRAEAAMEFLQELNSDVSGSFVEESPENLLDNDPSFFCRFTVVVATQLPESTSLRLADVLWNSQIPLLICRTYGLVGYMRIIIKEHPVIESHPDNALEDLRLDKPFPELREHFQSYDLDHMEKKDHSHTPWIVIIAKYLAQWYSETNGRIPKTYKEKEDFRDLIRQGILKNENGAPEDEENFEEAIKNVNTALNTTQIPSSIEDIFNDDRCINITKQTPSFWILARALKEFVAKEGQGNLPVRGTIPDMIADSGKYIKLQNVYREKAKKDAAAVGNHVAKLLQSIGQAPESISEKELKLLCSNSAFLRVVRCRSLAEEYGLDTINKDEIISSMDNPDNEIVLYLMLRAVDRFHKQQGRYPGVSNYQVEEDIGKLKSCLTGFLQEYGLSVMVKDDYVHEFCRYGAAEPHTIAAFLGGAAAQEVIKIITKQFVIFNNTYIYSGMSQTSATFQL
T1 sequence (P61081 whole entry partner): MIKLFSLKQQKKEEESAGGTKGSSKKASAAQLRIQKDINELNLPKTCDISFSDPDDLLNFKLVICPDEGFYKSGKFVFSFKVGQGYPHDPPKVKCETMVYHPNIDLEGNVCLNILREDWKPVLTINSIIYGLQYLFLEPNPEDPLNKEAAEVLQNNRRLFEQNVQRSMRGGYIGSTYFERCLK
T1 sequence (Q15843 1-76 partner): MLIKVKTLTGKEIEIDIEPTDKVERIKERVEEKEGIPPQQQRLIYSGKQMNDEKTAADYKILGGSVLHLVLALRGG

Turning to `COc1ccc(/C=C/C(=O)c2c(O)cc(OC)cc2OC)cc1` [FKA, flavokawain A], the IC50 was roughly 5 µM.
